Test results: patent publication US8007782B2, “Combination bacteriolytic therapy for the treatment of tumors” (priority 2003, dated 2011)

Experiments:
[1] = Mortality following COBALT; type: in vivo, nude mice; conditions: deaths within one week, pooled xenograft models
Text: (§1) All animal protocols were designed in accordance with the Guide for the Care and Use of Laboratory Animals (NIH Publication 86-23) and were approved by the Johns Hopkins University Institutional Animal Care and Use Committee. Six to eight week old mice were implanted subcutaneously on one flank with 3 to 6 million cancer cells. Establishment of tumors of 150 to 500 mm3 took 8 to 21 days, depending on the cell type. C. novyi-NT spores (300×106) and anti-microtubule agents were generally administered by a single intravenous injection through the tail vein in a total volume of 300 to 500 ul phosphate-buffered saline (PBS). Quantitative assessment of tumor growth was performed by measuring subcutaneous tumor grafts (major and minor axis) using electronic calipers. Tumor volume was calculated using the equation: length×width2×0.5. Progression free survival was defined as the length of time following treatment before any increase in tumor volume was observed. Mice were considered “cured” if no tumor was evident three months after treatment. Animals were weighed at least twice a week and carefully observed for signs of toxicity every day for the first week following treatment and then twice a week thereafter. At least five mice were used for each treatment arm described in the Experimental Results.
(§2) This toxicity was observed only when the combination of C. novyi-NT spores and the drugs was administered and not with either the bacteria or the drugs alone. […] Though major tumor regressions were common, few mice died as a result of therapy (Table 2) No deaths occurred after treatment with the microtubule stabilizers plus C. novyi-NT, while 4% to 8% of mice treated with microtubule destabilizers plus C. novyi-NT died. The only other toxicity observed was transient weight loss (Table 3). Mice treated with the drugs alone lost ˜5 to 10% of their body weight within 7 days, while weight loss after treatment with C. novyi-NT plus these drugs varied from 8% to 18%. All weights recovered to pre-treatment levels within two weeks.

[2] = test system: HCT116, HuCC-T1, HT-29, SW480, B16 and DLD-1 tumors; test: Low dose HTI-286 and L-NNA on various xenografts (FIG. 10); type: in vivo, mice; conditions: HTI-286 1 mg/kg without L-NNA; L-NNA 10 mg/kg without HTI-286
Text: FIG. 10A-10F Quantification of the effects of C. novyi-NT plus low doses of HTI-286 and L-NNA on various xenografts (HCT116, HuCC-T1, HT-29, SW480, B16, and DLD-1, respectively).
[…] […] The p-values are based on comparisons between L-NNA+HTI-286 and L-NNA+HTI-286+C. novyi-NT spores. The p-value is indicated only when the result was statistically significant.
All animal protocols were designed in accordance with the Guide for the Care and Use of Laboratory Animals (NIH Publication 86-23) and were approved by the Johns Hopkins University Institutional Animal Care and Use Committee. Six to eight week old mice were implanted subcutaneously on one flank with 3 to 6 million cancer cells. Establishment of tumors of 150 to 500 mm3 took 8 to 21 days, depending on the cell type. C. novyi-NT spores (300×106) and anti-microtubule agents were generally administered by a single intravenous injection through the tail vein in a total volume of 300 to 500 ul phosphate-buffered saline (PBS). Quantitative assessment of tumor growth was performed by measuring subcutaneous tumor grafts (major and minor axis) using electronic calipers. Tumor volume was calculated using the equation: length×width2×0.5. Progression free survival was defined as the length of time following treatment before any increase in tumor volume was observed. Mice were considered “cured” if no tumor was evident three months after treatment. […]

[3] = test system: HCT116 human colorectal cancer cells; test: Tumorigenicity assay, HCT116 xenografts in nude mice; type: in vivo; conditions: for Effect with C. novyi-NT / Effect alone: nude mice; for Effect alone: agent alone
Text: as §1
The timing, route, and dose of agents are critical for the success of any experimental therapy. When two agents are combined, the number of variables that must be tested increases exponentially. To simplify interpretation of the comparisons between various anti-microtubule agents, pilot studies with representative drugs were performed.
Eighteen agents known to interact with microtubules were each tested in this manner in nude mice harboring xenografts of HCT116 human colorectal cancer cells. At least five mice harboring tumors of 150 to 500 mm3 in size were used for each experimental arm. Two classes of responses were noted. One type of response was characterized by a rapid hemorrhagic necrosis, observed only with agents that inhibited microtubule […] (FIG. 1A, B). The other type of response was characterized by a slow regression, observed with agents that stabilized microtubules (FIG. 2A, B).

Weight loss after COBALT = type: in vivo, nude mice; conditions: drug dose 1.7 mg/kg; maximum average weight loss relative to weight one day prior to treatment; HCT116 xenografts
Text: as §1, §2

[4] = test system: tumor blood flow in HCT116 xenografts; test: Assessment of blood perfusion (Hoechst 33342) in HCT116 xenografts; type: in vivo, mice; conditions: HTI-286 1.7 mg/kg or docetaxel 50 mg/kg iv, 3 and 24 hr after treatment
Description: Three or 24 hours after treatment, mice were intravenously injected with Hoechst 33342 (40 mg/kg) and euthanized two minutes later. Tumors were cryosectioned and viewed by fluorescence microscopy after counter-staining with acridine orange (AO). Endothelial cells are stained blue when they have taken up the Hoechst 33342 dye. Adjacent sections were stained with MECA-32 monoclonal antibody, a vascular endothelium-specific marker. Arrows point towards normal blood vessels unaffected by HTI-286 treatment in overlying skin.
Mice bearing HCT116 xenografts of 300 to 500 mm3 were injected intravenously with anti-microtubule agents. At various times thereafter, they were intravenously injected with Hoechst 33342 (40 mg/kg), then euthanized two minutes later by CO2 narcosis. Tumors were fixed in Tissue-Tek OTC compound (Sakura Finetek, Torrance, Calif.) and stored at −80° C. Frozen sections 10 microns in thickness were prepared with a Leica Microsystems cryostat and counterstained with acridine orange, 7.5 ug/ml, in PBS for 5 minutes. […] At least three sections of each of three tumors, representing middle and distal parts of the tumor, were examined under fluorescence microscopy for each agent tested, and representative results are illustrated in the figures. […]

Question: What does the source list for `CN[C@H](C(=O)N[C@H](C(=O)N(C)[C@H](/C=C(\C)C(=O)O)C(C)C)C(C)(C)C)C(C)(C)c1ccccc1` [HTI-286, N,β,β-trimethyl-L-phenylalanyl-N^1-[(1S,2E)-3-carboxy-1-isopropylbut-2-enyl]-N^1,3-dimethyl-L-valinamide]?
Answer: # dead (treatment-related deaths) ([1]; drug dose 1.7 mg/kg): 3; dead (%) ([1]; drug dose 1.7 mg/kg): 2.9%; # dead (treatment-related deaths) ([1]; drug dose 1.9 mg/kg): 3; dead (%) ([1]; drug dose 1.9 mg/kg): 5.4%; # dead (treatment-related deaths) ([1]; drug dose 2.0 mg/kg): 5; dead (%) ([1]; drug dose 2.0 mg/kg): 10.6%; effects on tumor growth when administered without the other agent [2]: no significant effects on tumor growth; Effect with C. novyi-NT ([3]; 0.5 mg/kg × 1 (iv) with 3×108 C. novyi-NT spores iv): +; Effect with C. novyi-NT ([3]; 1.0 mg/kg × 1 (iv) with 3×108 C. novyi-NT spores iv): +; Effect with C. novyi-NT ([3]; 1.5 mg/kg × 1 (iv) with 3×108 C. novyi-NT spores iv): ++ (10% to 50% shrinkage in tumor volume relative to pre-treatment size); Effect with C. novyi-NT ([3]; 1.7 mg/kg × 1 (iv) with 3×108 C. novyi-NT spores iv): ++++ (>20% cures); Effect with C. novyi-NT ([3]; 1.9 mg/kg × 1 (iv) with 3×108 C. novyi-NT spores iv): ++++ (>20% cures); Effect with C. novyi-NT ([3]; 2 (2.0) mg/kg × 1 (iv) with 3×108 C. novyi-NT spores iv): ++++ (>20% cures); Effect alone ([3]; 0.5 mg/kg × 1 (iv)): 0; Effect alone ([3]; 1.0 mg/kg × 1 (iv)): 0; Effect alone ([3]; 1.5 mg/kg × 1 (iv)): +; Effect alone ([3]; 1.7 mg/kg × 1 (iv)): +; Effect alone ([3]; 1.9 mg/kg × 1 (iv)): ++ (10% to 50% shrinkage in tumor volume relative to pre-treatment size); Effect alone ([3]; 2 (2.0) mg/kg × 1 (iv)): ++ (10% to 50% shrinkage in tumor volume relative to pre-treatment size); hemorrhagic necrosis ([3]; single treatment): modest amount of hemorrhagic necrosis; Weight Loss (%) (Weight loss after COBALT): 11.4%; blood flow to the tumors (Hoechst 33342 labelling) [4]: almost completely inhibited
